Data as given in patent US20190292167A1, “HETEROAROMATIC COMPOUNDS USEFUL FOR THE TREATMENT OF PROLIFERATIVE DISEASES” (Syros Pharmaceuticals, Inc., priority 2013, published 2019).
Structures can show the parent of a compound that is named as a salt. Where two headings read alike, the source gives them in different places. Values belong to the molecule of their own block, whether it stands above or below them.

What was measured:
[1] = tested on: THP-1; test: Inhibition of cell proliferation, CellTiter-Glo, 72 hour; type: cell-based; conditions: Homo sapiens, Blood cancer cell line
[2] = tested on: MNNG-Hos Cl#5; test: as above; type: cell-based; conditions: Osteosarcoma cell line
[3] = tested on: RS4-11; test: as above; type: cell-based; conditions: Homo sapiens, Blood cancer cell line
[4] = tested on: SAOS; test: as above; type: cell-based; conditions: Osteosarcoma cell line
[5] = tested on: T47D; test: as above; type: cell-based; conditions: Homo sapiens, Breast Cancer/Breast cell line
[6] = tested on: MCF-10A; test: as above; type: cell-based; conditions: Homo sapiens, Breast Cancer/Breast cell line, read-out: Inhibition of Proliferation MCF10A
[7] = tested on: 143B; test: as above; type: cell-based; conditions: Homo sapiens, Osteosarcoma cell line
[8] = tested on: SKBR-3; test: as above; type: cell-based; conditions: Homo sapiens, SK-BR-3, Breast Cancer/Breast cell line, read-out: Inhibition of Proliferation SKBR3
[9] = tested on: HL-60; test: as above; type: cell-based; conditions: Homo sapiens, Blood cancer cell line, read-out: Inhibition of Proliferation HL60
[10] = tested on: MV4-11; test: as above; type: cell-based; conditions: Homo sapiens, Blood cancer cell line
[11] = tested on: Hs822T; test: as above; type: cell-based; conditions: Ewing's Sarcoma cell line
Experimental: (§1) • Hs863T—DMEM (4 mM L-Glut, 4.5 g/L Glucose, 1 mM pyruvate, 1.5 g/l bicarb)+10% FBS • Hs822T—DMEM (4 mM L-Glut, 4.5 g/L Glucose, 1 mM pyruvate, 1.5 g/l bicarb)+10% FBS • A673—DMEM (4 mM L-Glut, 4.5 g/L Glucose, 1 mM pyruvate, 1.5 g/l bicarb)+10% FBS • SKES-1—McCoy's 5a Medium Modified (modified—1.5 mM L-glut, 2.2 g/L bicarb)+15% FBS • RD-ES—RPMI 1640+15% FBS.

[12] = tested on: A673; test: as above; type: cell-based; conditions: Homo sapiens, Ewing's Sarcoma cell line
Experimental: as §1

[13] = tested on: RD-ES; test: as above; type: cell-based; conditions: Ewing's Sarcoma cell line
Experimental: as §1

[14] = tested on: SKES-1; test: as above; type: cell-based; conditions: Homo sapiens, SK-ES1, Ewing's Sarcoma cell line, read-out: Inhibition of Proliferation SK-ES
Experimental: as §1

[15] = tested on: Hs863T; test: as above; type: cell-based; conditions: Ewing's Sarcoma cell line
Experimental: as §1

[16] = tested on: MCF-7; test: as above; type: cell-based; conditions: Homo sapiens, MCF7, Breast Cancer/Breast cell line
[17] = tested on: hTERT-HME1; test: as above; type: cell-based; conditions: Breast Cancer/Breast cell line
[18] = tested on: MDA-MB231; test: as above; type: cell-based; conditions: Homo sapiens, MDA-MB-231, Breast Cancer/Breast cell line
[19] = molecular target: T1, CDK7 (Homo sapiens, UniProt P50613); test: Adapta kinase assay (Life Technologies) against CDK7, co-factors cyclin H and MNAT1; type: biochemical; conditions: read-out: CDK7 Inhibition
T1 construct: purchased Life Technologies (Adapta kinase assay service)
Experimental: Compounds of the invention were assayed for activity against CDK7 at Life Technologies™ (Grand Island, N.Y.) using their commercially available Adapta® kinase assay services. […] Details of the assay, including the substrate used for CDK7 kinase, are available on the Life Technologies web site (http://www.lifetechnologies.com/us/en/homellife-science/drug-discovery/target-and-lead-identification-and-validation/kinasebiology/kinase-activity-assays.html).
The co-factors used for the assay were cyclin H and MNAT1.

[20] = tested on: Jurkat; test: Inhibition of cell proliferation, CellTiter-Glo, 72 hour; type: cell-based; conditions: Blood cancer cell line, 72 hour, read-out: Inhibition of Proliferation of Jurkat Cells
Experimental: The following cancer cell lines were tested with the media conditions indicated: […]

T1 sequence (P50613 whole entry): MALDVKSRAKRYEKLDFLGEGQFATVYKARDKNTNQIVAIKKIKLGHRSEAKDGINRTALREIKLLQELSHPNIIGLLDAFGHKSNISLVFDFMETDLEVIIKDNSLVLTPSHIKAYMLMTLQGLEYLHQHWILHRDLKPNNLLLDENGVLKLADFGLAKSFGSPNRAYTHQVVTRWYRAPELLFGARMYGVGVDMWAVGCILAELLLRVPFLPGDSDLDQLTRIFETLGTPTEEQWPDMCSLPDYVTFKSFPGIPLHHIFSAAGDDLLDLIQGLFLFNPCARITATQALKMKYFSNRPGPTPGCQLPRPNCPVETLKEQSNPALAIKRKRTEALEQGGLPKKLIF
T1 sequence (P51946 whole entry partner): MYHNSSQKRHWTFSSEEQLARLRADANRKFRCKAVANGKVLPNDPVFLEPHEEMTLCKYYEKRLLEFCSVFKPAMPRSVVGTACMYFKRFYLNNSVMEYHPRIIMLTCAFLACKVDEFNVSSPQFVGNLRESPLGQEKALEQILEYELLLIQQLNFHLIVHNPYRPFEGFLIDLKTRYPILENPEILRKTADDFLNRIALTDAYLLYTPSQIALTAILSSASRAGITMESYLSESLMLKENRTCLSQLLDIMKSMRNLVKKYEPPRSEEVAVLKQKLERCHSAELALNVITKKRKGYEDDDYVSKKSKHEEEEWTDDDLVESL
T1 sequence (P51948 whole entry partner): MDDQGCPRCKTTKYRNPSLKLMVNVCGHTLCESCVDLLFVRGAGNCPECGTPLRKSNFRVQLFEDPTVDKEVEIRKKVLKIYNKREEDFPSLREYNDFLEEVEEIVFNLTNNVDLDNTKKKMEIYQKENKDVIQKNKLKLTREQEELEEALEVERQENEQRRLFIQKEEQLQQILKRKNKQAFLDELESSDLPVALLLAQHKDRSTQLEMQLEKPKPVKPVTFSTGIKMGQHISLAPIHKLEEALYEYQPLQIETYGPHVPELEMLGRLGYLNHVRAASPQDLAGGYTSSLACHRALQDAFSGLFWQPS

Structure (SMILES): CC(C)[C@]12O[C@H]1[C@@H]1O[C@]13[C@]1(O[C@H]1C[C@H]1C4=C(CC[C@@]13C)C(=O)OC4)[C@@H]2O [Triptolide, triptolide, reference compound]
IC50 [1]: < 500 nM | IC50 [2]: < 500 nM | IC50 [3]: < 500 nM | IC50 [4]: < 500 nM | IC50 [5]: > 5000 nM | IC50 [6]: < 500 nM | IC50 [7]: < 500 nM | IC50 [8]: < 500 nM | IC50 [9]: < 500 nM | IC50 [10]: < 500 nM | IC50 [11]: 500 to 5000 nM | IC50 [12]: < 500 nM | IC50 [13]: < 500 nM | IC50 [14]: < 500 nM | IC50 [15]: > 5000 nM | IC50 [16]: < 500 nM | IC50 [17]: < 500 nM | IC50 [18]: < 500 nM

IC50 [1]: < 500 nM | IC50 [3]: < 500 nM | IC50 [5]: > 5000 nM | IC50 [8]: < 500 nM | IC50 [9]: < 500 nM | IC50 [10]: < 500 nM | IC50 [14]: < 500 nM | IC50 [16]: 500 to 5000 nM | IC50 [18]: < 500 nM
Structure (SMILES): CN1CC[C@H](c2c(O)cc(O)c3c(=O)cc(-c4ccccc4Cl)oc23)[C@H](O)C1 [Flavopiridol, flavopiridol, reference compound]
IC50 [2]: 500 to 5000 nM | IC50 [4]: < 500 nM | IC50 [6]: < 500 nM | IC50 [7]: 500 to 5000 nM | IC50 [11]: > 5000 nM | IC50 [12]: < 500 nM | IC50 [13]: < 500 nM | IC50 [15]: > 5000 nM | IC50 [17]: < 500 nM

IC50 [19]: < 100 nM | IC50 ([20]; Homo sapiens, Jurkat, 72 h): < 500 nM
Structure (SMILES): CN(C/C=C/C(=O)Nc1ccc(CN2CCC(Nc3ncc(Cl)c(-c4c[nH]c5ccccc45)n3)CC2)cc1)CC(O)CO (centres unmarked) [Compound 143, (E)-N-(4-((4-((5-chloro-4-(1H-indol-3-yl)pyrimidin-2-yl)amino)piperidin-1-yl)methyl)phenyl)-4-((2,3-dihydroxypropyl)(methyl)amino)but-2-enamide]

IC50 [19]: < 100 nM | IC50 ([20]; Homo sapiens, Jurkat, 72 h): 500 to 5000 nM
Structure (SMILES): CN(C)C/C=C/C(=O)NCC(=O)Nc1cccc(Nc2ncc(Cl)c(-c3c[nH]c4ccccc34)n2)c1 [Compound 137, (E)-N-(2-(3-(5-chloro-4-(1H-indol-3-yl)pyrimidin-2-ylamino)phenylamino)-2-oxoethyl)-4-(dimethylamino)but-2-enamide]

IC50 [19]: > 1000 nM | IC50 ([20]; Homo sapiens, Jurkat, 72 h): > 5000 nM
Structure (SMILES): CN(C)C/C=C/C(=O)Nc1ccc(C(=O)N2CCC(Nc3ncc(Cl)c(-c4cc[nH]n4)n3)CC2)cc1 [Compound 117, (E)-N-(4-(4-((5-chloro-4-(1H-pyrazol-3-yl)pyrimidin-2-yl)amino)piperidine-1-carbonyl)phenyl)-4-(dimethylamino)but-2-enamide]

IC50 [19]: < 100 nM | IC50 ([20]; Homo sapiens, Jurkat, 72 h): < 500 nM
Structure (SMILES): C=CC(=O)Nc1ccc(NC(=O)C2CNCC(Nc3ncc(Cl)c(-c4c[nH]c5ccccc45)n3)C2)cc1 (racemic) [Compound 153, (+/−cis)-N-(4-acrylamidophenyl)-5-((5-chloro-4-(1H-indol-3-yl)pyrimidin-2-yl)amino)piperidine-3-carboxamide]

IC50 [19]: < 100 nM | IC50 ([20]; Homo sapiens, Jurkat, 72 h): 500 to 5000 nM
Structure (SMILES): NCC(=O)Nc1cccc(Nc2ncc(Cl)c(-c3c[nH]c4ccccc34)n2)c1 [Compound 307, 2-amino-N-(3-(5-chloro-4-(1H-indol-3-yl)pyrimidin-2-ylamino)phenyl)acetamide.TFA]

IC50 [19]: < 100 nM | IC50 ([20]; Homo sapiens, Jurkat, 72 h): > 5000 nM
Structure (SMILES): CN(C/C=C/C(=O)Nc1ccc(CN2CCC(Nc3ncc(Cl)c(-c4c[nH]c5ccccc45)n3)CC2)cc1)CC(N)=O [Compound 146, (E)-4-((2-amino-2-oxoethyl)(methyl)amino)-N-(4-((4-((5-chloro-4-(1H-indol-3-yl)pyrimidin-2-yl)amino)piperidin-1-yl)methyl)phenyl)but-2-enamide]

IC50 [19]: < 100 nM | IC50 ([20]; Homo sapiens, Jurkat, 72 h): 500 to 5000 nM
Structure (SMILES): Nc1ccc(C(=O)N2CCC(Nc3ncc(Cl)c(-c4c[nH]c5ccccc45)n3)CC2)cc1F [Compound 55, (4-amino-3-fluorophenyl)(4-(5-chloro-4-(1H-indol-3-yl)pyrimidin-2-ylamino)piperidin-1-yl)methanone]

IC50 [19]: < 100 nM | IC50 [20]: < 500 nM
Structure (SMILES): CN(C)CC=CC(=O)Nc1ccc(C(=O)NC2CNCC(Nc3ncc(Cl)c(-c4c[nH]c5ccccc45)n3)C2)cc1 (racemic) [Compound 150, N-((+/−trans)-5-((5-chloro-4-(1H-indol-3-yl)pyrimidin-2-yl)amino)piperidin-3-yl)-4-((E)-4-(dimethylamino)but-2-enamido)benzamide]

IC50 [19]: < 100 nM | IC50 ([20]; Homo sapiens, Jurkat, 72 h): < 500 nM
Structure (SMILES): Cc1[nH]c2ccccc2c1-c1nc(NC2CCN(C(=O)c3ccc(NC(=O)/C=C/CN(C)C)cc3)CC2)ncc1Cl [Compound 125, (E)-N-(4-(4-((5-chloro-4-(2-methyl-1H-indol-3-yl)pyrimidin-2-yl)amino)piperidine-1-carbonyl)phenyl)-4-(dimethylamino)but-2-enamide]

IC50 [19]: < 100 nM | IC50 ([20]; Homo sapiens, Jurkat, 72 h): 500 to 5000 nM
Structure (SMILES): Nc1ccc(C(=O)N2CC[C@@H](Nc3ncc(Cl)c(-c4c[nH]c5ccccc45)n3)C2)cc1 [Compound 35, (4-aminophenyl)((R)-3-(5-chloro-4-(1H-indol-3-yl)pyrimidin-2-ylamino)pyrrolidin-1-yl)methanone]

IC50 [19]: < 100 nM | IC50 ([20]; Homo sapiens, Jurkat, 72 h): 500 to 5000 nM
Structure (SMILES): N#Cc1cnc(N[C@@H]2CCN(C(=O)c3ccc(N)cc3)C2)nc1-c1c[nH]c2ccccc12 [Compound 37, 2-((R)-1-(4-aminobenzoyl)pyrrolidin-3-ylamino)-4-(1H-indol-3-yl)pyrimidine-5-carbonitrile]

IC50 [19]: 100 to 1000 nM | IC50 ([20]; Homo sapiens, Jurkat, 72 h): < 500 nM
Structure (SMILES): CN(C)C/C=C/C(=O)Nc1ccc(C(=O)N[C@@H]2CC[C@H](Nc3ncc(Cl)c(-c4c[nH]c5ccccc45)n3)C2)cc1 (racemic) [Compound 120, N-((1R,3S)-3-((5-chloro-4-(1H-indol-3-yl)pyrimidin-2-yl)amino)cyclopentyl)-4-((E)-4-(dimethylamino)but-2-enamido)benzamide and N-((1S,3R)-3-((5-chloro-4-(1H-indol-3-yl)pyrimidin-2-yl)amino)cyclopentyl)-4-((E)-4-(dimethylamino)but-2-enamido)benzamide]

IC50 [19]: 100 to 1000 nM | IC50 ([20]; Homo sapiens, Jurkat, 72 h): < 500 nM
Structure (SMILES): Cc1noc(C)c1-c1nc(N[C@H]2CC[C@@H](NC(=O)c3ccc(NC(=O)/C=C/CN(C)C)cc3)C2)ncc1Cl (racemic) [Compound 122, N-((1R,3S)-3-((5-chloro-4-(3,5-dimethylisoxazol-4-yl)pyrimidin-2-yl)amino)cyclopentyl)-4-((E)-4-(dimethylamino)but-2-enamido)benzamide and N-((1S,3R)-3-((5-chloro-4-(3,5-dimethylisoxazol-4-yl)pyrimidin-2-yl)amino)cyclopentyl)-4-((E)-4-(dimethylamino)but-2-enamido)benzamide]

IC50 [19]: 100 to 1000 nM | IC50 ([20]; Homo sapiens, Jurkat, 72 h): 500 to 5000 nM
Structure (SMILES): CN(C)C/C=C/C(=O)Nc1ccc(C(=O)N2CCC(Nc3ncc(Cl)c(-c4cccnc4)n3)CC2)cc1 [Compound 118, (E)-N-(4-(4-((5-chloro-4-(pyridin-3-yl)pyrimidin-2-yl)amino)piperidine-1-carbonyl)phenyl)-4-(dimethylamino)but-2-enamide]

IC50 [19]: < 100 nM | IC50 ([20]; Homo sapiens, Jurkat, 72 h): < 500 nM
Structure (SMILES): CN(C)C/C=C/C(=O)Nc1ccc(C(=O)N2CCC(Nc3ncc(Cl)c(-c4c[nH]c5ccccc45)n3)CC2)c(F)c1 [Compound 115, (E)-N-(4-(4-(5-chloro-4-(1H-indol-3-yl)pyrimidin-2-ylamino)piperidine-1-carbonyl)-3-fluorophenyl)-4-(dimethylamino)but-2-enamide]

IC50 [19]: < 100 nM | IC50 ([20]; Homo sapiens, Jurkat, 72 h): < 500 nM
Structure (SMILES): CN(C/C=C/C(=O)Nc1ccc(C(=O)N2CC[C@@H](Nc3ncc(C#N)c(-c4c[nH]c5ccccc45)n3)C2)cc1)CCO [Compound 111, (E)-N-(4-((R)-3-(5-cyano-4-(1H-indol-3-yl)pyrimidin-2-ylamino)pyrrolidine-1-carbonyl)phenyl)-4-((2-hydroxyethyl)(methyl)amino)but-2-enamide]
